Measurements from patent publication US20130037709A1, “Method for Clinically Monitoring Niacin and Niacin Metabolites in Serum or Plasma” (priority 2010, published 2013).

Key:
Stability in plasma = experiment: Stability in plasma
Method: (§1) Nicotinic acid, nicotinamide and nicotinuric acid are stable in plasma when frozen (at −20±5° C.) for 64 days and after 3 freeze/thaw cycles. When kept at room temperature, nicotinic acid in plasma becomes unstable after 24 hours.

[1] = Long term storage in tubes (glass vs polypropylene); format: in vitro ADME
Description: Most preferred are Vacutainer tubes containing lithium-heparin as an anticoagulant.

[2] = Method: as §1
Remark: listed apart in the source
[3] = tested on: NAD and NADP in whole blood; details: individuals undergoing niacin therapy; average pretherapy value 175; cited from earlier work

Row | time stable in plasma when frozen (Stability in plasma; 64 days) [days] | stability in plasma after freeze/thaw cycles (Stability in plasma; plasma) | change in concentration on long term storage in polypropylene tubes [1] | time after which unstable in plasma at room temperature (Stability in plasma; 24 hours) [h] | time stable in serum when refrigerated (refrigerated) [days] | time stable in serum at room temperature (room temperature) [days] | Compound | stability in fresh whole blood [2] | average niacin number after niacin supplements [3] | stability in plasma after freeze/thaw cycles (Stability in plasma; plasma, after 3 freeze/thaw cycles) | time stable in plasma when frozen (Stability in plasma; plasma, frozen at −20±5° C.) [days]
1 | 64 | stable | significant changes in the concentration |  |  |  | NC(=O)c1cccnc1 [nicotinamide] |  |  |  | 
2 | 64 | stable |  | 24 | 15 | 15 | O=C(O)c1cccnc1 [nicotinic acid, pyridine 3-carboxylic acid] | neither nicotinic acid nor the active metabolites were stable | 665 |  | 
3 |  |  |  |  |  |  | O=C(O)CNC(=O)c1cccnc1 [nicotinuric acid] |  |  | stable | 64
